In article PMC4823954, “From fighting depression to conquering tumors: a novel tricyclic thiazepine compound as a tubulin polymerization inhibitor” (Cell Death & Disease, 2016):

Legend:
Test in all cases: KINOMEscan
Format in all cases: binding
Details in all cases: read-out: % Ctrl
ACVR1B = molecular target: T1, ACVR1B (Homo sapiens, UniProt P36896)
T1 construct: purchased DiscoveRx KINOMEscan
Outline: (§1)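 Competition binding panel of 442 non-mutant kinases: test compound at 5 and 10 μM competed with an active-site-directed ligand for 1 h with shaking. Bound kinase was eluted with 0.5 μM ligand and quantified by qPCR; %Ctrl = (compound − positive control)/(DMSO − positive control) × 100, lower meaning tighter binding.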

ADCK3 = molecular target: T2, ADCK3 (Homo sapiens, UniProt Q8NI60)
T2 construct: purchased DiscoveRx KINOMEscan
Outline: as §1

AURKA = molecular target: T3, AURKA (Homo sapiens, UniProt O14965)
T3 construct: purchased DiscoveRx KINOMEscan
Outline: as §1

BLK = molecular target: T4, BLK (Homo sapiens, UniProt P51451)
T4 construct: purchased DiscoveRx KINOMEscan
T4 sequence (P51451 whole entry): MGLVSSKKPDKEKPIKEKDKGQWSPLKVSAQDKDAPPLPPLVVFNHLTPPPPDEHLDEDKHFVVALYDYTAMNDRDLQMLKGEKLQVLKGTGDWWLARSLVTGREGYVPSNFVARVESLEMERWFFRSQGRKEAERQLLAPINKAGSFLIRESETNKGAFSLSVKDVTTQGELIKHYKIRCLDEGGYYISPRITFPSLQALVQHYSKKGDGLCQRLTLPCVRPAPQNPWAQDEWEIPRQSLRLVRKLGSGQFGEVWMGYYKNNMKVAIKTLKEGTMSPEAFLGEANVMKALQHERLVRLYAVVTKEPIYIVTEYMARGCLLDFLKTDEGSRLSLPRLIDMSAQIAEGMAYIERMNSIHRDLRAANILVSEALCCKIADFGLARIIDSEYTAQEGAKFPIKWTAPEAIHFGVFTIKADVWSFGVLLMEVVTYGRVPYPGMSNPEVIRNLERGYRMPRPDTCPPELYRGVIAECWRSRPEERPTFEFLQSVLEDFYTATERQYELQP
Outline: as §1

CAMK1D = molecular target: T5, CAMK1D (Homo sapiens, UniProt Q8IU85)
T5 construct: purchased DiscoveRx KINOMEscan
Outline: as §1

CAMK2G = molecular target: T6, CAMK2G (Homo sapiens, UniProt Q13555)
T6 construct: purchased DiscoveRx KINOMEscan
T6 sequence (Q13555 whole entry): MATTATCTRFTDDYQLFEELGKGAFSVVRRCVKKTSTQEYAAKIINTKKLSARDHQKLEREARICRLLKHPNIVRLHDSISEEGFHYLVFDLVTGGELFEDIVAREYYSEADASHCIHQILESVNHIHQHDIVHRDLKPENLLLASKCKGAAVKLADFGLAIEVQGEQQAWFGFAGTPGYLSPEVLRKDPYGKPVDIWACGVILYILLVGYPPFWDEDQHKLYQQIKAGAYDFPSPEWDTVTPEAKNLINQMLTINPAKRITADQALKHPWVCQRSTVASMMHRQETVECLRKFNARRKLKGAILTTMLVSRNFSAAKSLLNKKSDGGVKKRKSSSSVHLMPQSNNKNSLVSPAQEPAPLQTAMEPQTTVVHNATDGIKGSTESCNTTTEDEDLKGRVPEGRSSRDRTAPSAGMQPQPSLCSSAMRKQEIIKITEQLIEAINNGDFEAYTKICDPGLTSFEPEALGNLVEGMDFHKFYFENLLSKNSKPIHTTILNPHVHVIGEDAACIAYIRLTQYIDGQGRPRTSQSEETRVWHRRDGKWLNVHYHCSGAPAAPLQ
Outline: as §1

CDK11 = molecular target: T7, CDK11 (Homo sapiens, UniProt Q9BWU1)
T7 construct: purchased DiscoveRx KINOMEscan
Outline: as §1

DMPK = molecular target: T8, DMPK (Homo sapiens, UniProt Q09013)
T8 construct: purchased DiscoveRx KINOMEscan
Outline: as §1

FGR = molecular target: T9, FGR (Homo sapiens, UniProt P09769)
T9 construct: purchased DiscoveRx KINOMEscan
Outline: as §1

LIMK2 = molecular target: T10, LIMK2 (Homo sapiens, UniProt P53671)
T10 construct: purchased DiscoveRx KINOMEscan
Outline: as §1

LTK = molecular target: T11, LTK (Homo sapiens, UniProt P29376)
T11 construct: purchased DiscoveRx KINOMEscan
Outline: as §1

MAP4K3 = molecular target: T12, MAP4K3 (Homo sapiens, UniProt Q8IVH8)
T12 construct: purchased DiscoveRx KINOMEscan
Outline: as §1

MARK2 = molecular target: T13, MARK2 (Homo sapiens, UniProt Q7KZI7)
T13 construct: purchased DiscoveRx KINOMEscan
Outline: as §1

MEK5 = molecular target: T14, MEK5 (Homo sapiens, UniProt Q13163)
T14 construct: purchased DiscoveRx KINOMEscan
Outline: as §1

MEK6 = molecular target: T15, MEK6 (Homo sapiens, UniProt P52564)
T15 construct: purchased DiscoveRx KINOMEscan
Outline: as §1

MET(Y1235D) = molecular target: T16, MET(Y1235D) (Homo sapiens, UniProt P08581, Y1235D)
T16 construct: purchased DiscoveRx KINOMEscan
T16 sequence (P08581 25-1390 Y1235D): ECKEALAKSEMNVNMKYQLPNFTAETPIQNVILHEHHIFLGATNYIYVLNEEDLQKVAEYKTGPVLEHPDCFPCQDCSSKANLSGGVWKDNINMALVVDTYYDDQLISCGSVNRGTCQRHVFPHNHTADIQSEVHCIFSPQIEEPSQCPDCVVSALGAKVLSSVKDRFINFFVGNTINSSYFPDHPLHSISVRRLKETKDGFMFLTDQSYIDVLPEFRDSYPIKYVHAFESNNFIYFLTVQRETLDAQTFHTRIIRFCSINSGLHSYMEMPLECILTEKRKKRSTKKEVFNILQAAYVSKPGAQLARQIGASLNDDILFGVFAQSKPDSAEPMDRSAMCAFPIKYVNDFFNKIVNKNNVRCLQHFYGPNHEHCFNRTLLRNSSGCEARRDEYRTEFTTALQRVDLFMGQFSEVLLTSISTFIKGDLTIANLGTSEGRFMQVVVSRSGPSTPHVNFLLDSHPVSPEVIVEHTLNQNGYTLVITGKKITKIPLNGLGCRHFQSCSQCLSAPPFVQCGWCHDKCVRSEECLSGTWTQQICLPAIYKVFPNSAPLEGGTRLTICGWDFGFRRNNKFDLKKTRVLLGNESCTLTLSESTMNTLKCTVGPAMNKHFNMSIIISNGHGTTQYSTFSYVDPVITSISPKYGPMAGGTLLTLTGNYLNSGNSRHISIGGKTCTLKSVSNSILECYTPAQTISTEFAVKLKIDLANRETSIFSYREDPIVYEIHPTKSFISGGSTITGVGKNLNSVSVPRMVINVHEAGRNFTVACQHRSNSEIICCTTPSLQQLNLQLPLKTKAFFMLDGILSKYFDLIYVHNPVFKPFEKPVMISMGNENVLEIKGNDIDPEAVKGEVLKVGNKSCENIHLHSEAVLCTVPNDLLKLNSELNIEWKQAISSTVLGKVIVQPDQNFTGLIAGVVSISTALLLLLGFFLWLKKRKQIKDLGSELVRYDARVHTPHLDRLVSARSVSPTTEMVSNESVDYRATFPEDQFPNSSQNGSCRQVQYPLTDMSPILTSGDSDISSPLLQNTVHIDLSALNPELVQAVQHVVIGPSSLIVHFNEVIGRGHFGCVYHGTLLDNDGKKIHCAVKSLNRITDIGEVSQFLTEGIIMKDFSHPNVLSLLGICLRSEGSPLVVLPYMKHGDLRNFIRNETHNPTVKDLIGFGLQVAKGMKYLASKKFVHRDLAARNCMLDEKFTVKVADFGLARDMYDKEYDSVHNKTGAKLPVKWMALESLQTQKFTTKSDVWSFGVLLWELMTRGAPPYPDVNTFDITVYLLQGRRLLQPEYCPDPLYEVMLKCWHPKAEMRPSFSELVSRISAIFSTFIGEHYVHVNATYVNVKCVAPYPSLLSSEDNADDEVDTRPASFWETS

MKNK2 = molecular target: T17, MKNK2 (Homo sapiens, UniProt Q9HBH9)
T17 construct: purchased DiscoveRx KINOMEscan
Outline: as §1

MLK2 = molecular target: T18, MLK2 (Homo sapiens, UniProt Q02779)
T18 construct: purchased DiscoveRx KINOMEscan
Outline: as §1

MRCKB = molecular target: T19, MRCKB (Homo sapiens, UniProt Q9Y5S2)
T19 construct: purchased DiscoveRx KINOMEscan
Outline: as §1

MST3 = molecular target: T20, MST3 (Homo sapiens, UniProt Q9Y6E0)
T20 construct: purchased DiscoveRx KINOMEscan
Outline: as §1

NEK1 = molecular target: T21, NEK1 (Homo sapiens, UniProt Q96PY6)
T21 construct: purchased DiscoveRx KINOMEscan
T21 sequence (Q96PY6 whole entry): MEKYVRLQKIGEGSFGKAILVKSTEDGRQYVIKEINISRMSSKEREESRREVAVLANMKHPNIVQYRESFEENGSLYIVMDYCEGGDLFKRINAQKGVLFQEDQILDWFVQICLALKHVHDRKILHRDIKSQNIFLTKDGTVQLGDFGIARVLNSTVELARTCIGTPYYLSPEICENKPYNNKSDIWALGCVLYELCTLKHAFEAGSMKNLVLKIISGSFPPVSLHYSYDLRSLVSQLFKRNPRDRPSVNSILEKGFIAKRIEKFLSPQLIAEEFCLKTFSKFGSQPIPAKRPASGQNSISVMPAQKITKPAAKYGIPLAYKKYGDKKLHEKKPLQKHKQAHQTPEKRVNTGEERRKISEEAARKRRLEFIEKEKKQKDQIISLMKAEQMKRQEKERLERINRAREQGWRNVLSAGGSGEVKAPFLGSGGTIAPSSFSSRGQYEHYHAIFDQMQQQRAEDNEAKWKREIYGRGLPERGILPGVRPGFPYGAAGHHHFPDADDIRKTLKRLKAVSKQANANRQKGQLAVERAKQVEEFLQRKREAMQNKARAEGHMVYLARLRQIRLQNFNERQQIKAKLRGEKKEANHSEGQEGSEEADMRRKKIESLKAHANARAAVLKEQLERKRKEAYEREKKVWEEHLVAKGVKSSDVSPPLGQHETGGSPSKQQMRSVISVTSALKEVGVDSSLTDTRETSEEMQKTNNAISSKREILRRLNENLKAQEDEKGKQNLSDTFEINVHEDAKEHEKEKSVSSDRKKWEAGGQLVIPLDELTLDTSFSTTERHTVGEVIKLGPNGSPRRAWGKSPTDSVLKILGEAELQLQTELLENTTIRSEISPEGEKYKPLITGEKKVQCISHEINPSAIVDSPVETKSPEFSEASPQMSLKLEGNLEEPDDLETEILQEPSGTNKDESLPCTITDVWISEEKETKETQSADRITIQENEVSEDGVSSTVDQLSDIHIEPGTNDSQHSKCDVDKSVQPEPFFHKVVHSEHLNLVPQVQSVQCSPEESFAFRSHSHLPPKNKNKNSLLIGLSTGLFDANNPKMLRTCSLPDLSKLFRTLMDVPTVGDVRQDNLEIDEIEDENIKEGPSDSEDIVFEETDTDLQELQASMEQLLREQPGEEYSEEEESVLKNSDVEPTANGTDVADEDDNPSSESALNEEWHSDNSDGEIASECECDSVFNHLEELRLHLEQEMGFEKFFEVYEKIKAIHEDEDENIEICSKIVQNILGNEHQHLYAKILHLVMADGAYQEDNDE
Outline: as §1

PDGFRA = molecular target: T22, PDGFRA (Homo sapiens, UniProt P16234)
T22 construct: purchased DiscoveRx KINOMEscan
Outline: as §1

PIP5K1C = molecular target: T23, PIP5K1C (Homo sapiens, UniProt O60331)
T23 construct: purchased DiscoveRx KINOMEscan
Outline: as §1

PKAC-alpha = molecular target: T24, PKAC-alpha (Homo sapiens, UniProt P17612)
T24 construct: purchased DiscoveRx KINOMEscan
Outline: as §1

PRKCH = molecular target: T25, PRKCH (Homo sapiens, UniProt P24723)
T25 construct: purchased DiscoveRx KINOMEscan
T25 sequence (P24723 whole entry): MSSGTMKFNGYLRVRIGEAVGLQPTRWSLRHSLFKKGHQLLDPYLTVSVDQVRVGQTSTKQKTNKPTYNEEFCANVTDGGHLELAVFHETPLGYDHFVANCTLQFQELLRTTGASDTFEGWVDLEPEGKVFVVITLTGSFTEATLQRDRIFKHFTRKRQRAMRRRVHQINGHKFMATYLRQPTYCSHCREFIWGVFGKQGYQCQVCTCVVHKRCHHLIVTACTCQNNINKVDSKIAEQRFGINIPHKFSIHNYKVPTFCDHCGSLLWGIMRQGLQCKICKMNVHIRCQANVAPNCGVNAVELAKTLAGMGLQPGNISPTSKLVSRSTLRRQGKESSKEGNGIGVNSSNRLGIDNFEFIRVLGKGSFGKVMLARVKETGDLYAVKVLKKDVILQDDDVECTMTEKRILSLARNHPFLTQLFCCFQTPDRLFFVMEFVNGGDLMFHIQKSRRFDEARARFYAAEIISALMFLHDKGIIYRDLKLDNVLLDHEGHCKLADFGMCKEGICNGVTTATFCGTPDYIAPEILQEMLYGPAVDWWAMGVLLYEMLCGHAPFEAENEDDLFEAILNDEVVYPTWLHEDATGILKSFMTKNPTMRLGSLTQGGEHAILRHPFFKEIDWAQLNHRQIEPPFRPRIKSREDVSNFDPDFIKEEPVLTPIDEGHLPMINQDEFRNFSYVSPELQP
Outline: as §1

RIOK3 = molecular target: T26, RIOK3 (Homo sapiens, UniProt O14730)
T26 construct: purchased DiscoveRx KINOMEscan
T26 sequence (O14730 whole entry): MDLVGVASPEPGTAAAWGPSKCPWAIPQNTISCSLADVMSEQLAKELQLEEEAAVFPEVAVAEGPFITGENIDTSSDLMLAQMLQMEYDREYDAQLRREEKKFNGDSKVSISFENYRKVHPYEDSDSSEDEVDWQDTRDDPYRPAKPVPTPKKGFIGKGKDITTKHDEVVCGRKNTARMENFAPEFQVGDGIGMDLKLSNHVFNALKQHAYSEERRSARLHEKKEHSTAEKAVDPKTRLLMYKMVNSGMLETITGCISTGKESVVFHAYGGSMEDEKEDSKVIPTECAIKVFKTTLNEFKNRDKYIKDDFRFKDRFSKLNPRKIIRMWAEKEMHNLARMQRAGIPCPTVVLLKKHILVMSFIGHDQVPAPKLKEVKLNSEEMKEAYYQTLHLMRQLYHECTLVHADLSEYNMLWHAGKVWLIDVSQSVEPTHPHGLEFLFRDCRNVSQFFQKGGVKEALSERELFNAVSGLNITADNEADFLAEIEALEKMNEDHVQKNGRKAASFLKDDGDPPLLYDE
Outline: as §1

[1] = molecular target: T27, RPS6KA5(Kin.Dom.1-N-terminal) (Homo sapiens, UniProt O75582)
T27 construct: RPS6KA5(Kin.Dom.1-N-terminal); purchased DiscoveRx KINOMEscan
Outline: as §1

SNRK = molecular target: T28, SNRK (Homo sapiens, UniProt Q9NRH2)
T28 construct: purchased DiscoveRx KINOMEscan
Outline: as §1

STK33 = molecular target: T29, STK33 (Homo sapiens, UniProt Q9BYT3)
T29 construct: purchased DiscoveRx KINOMEscan
Outline: as §1

p38-delta = molecular target: T30, p38-delta (Homo sapiens, UniProt O15264)
T30 construct: purchased DiscoveRx KINOMEscan
Outline: as §1

Q: Which results are given for `Cc1ccc(C2=Nc3cccnc3S(=O)(=O)c3ccccc32)cc1` [TBPT, 6-(p-tolyl)benzo[f] pyrido[2,3-b][1,4] thiazepine 11,11-dioxide]?
A: remaining binding at 5 µM (ACVR1B; 5 μM): 98%; remaining binding at 10 µM (ACVR1B; 10 μM): 91%; remaining binding at 5 µM (ADCK3; 5 μM): 98%; remaining binding at 10 µM (ADCK3; 10 μM): 100%; remaining binding at 5 µM (AURKA; 5 μM): 100%; remaining binding at 10 µM (AURKA; 10 μM): 100%; remaining binding at 5 µM (BLK; 5 μM): 88%; remaining binding at 10 µM (BLK; 10 μM): 88%; remaining binding at 5 µM (CAMK1D; 5 μM): 81%; remaining binding at 10 µM (CAMK1D; 10 μM): 91%; remaining binding at 5 µM (CAMK2G; 5 μM): 100%; remaining binding at 10 µM (CAMK2G; 10 μM): 96%; remaining binding at 5 µM (CDK11; 5 μM): 100%; remaining binding at 10 µM (CDK11; 10 μM): 100%; remaining binding at 5 µM (DMPK; 5 μM): 88%; remaining binding at 10 µM (DMPK; 10 μM): 100%; remaining binding at 5 µM (FGR; 5 μM): 97%; remaining binding at 10 µM (FGR; 10 μM): 73%; remaining binding at 5 µM (LIMK2; 5 μM): 91%; remaining binding at 10 µM (LIMK2; 10 μM): 100%; remaining binding at 5 µM (LTK; 5 μM): 100%; remaining binding at 10 µM (LTK; 10 μM): 100%; remaining binding at 5 µM (MAP4K3; 5 μM): 75%; remaining binding at 10 µM (MAP4K3; 10 μM): 91%; remaining binding at 5 µM (MARK2; 5 μM): 86%; remaining binding at 10 µM (MARK2; 10 μM): 84%; remaining binding at 5 µM (MEK5; 5 μM): 100%; remaining binding at 10 µM (MEK5; 10 μM): 95%; remaining binding at 5 µM (MEK6; 5 μM): 83%; remaining binding at 10 µM (MEK6; 10 μM): 100%; remaining binding at 5 µM (MET(Y1235D); 5 μM): 89%; remaining binding at 10 µM (MET(Y1235D); 10 μM): 85%; remaining binding at 5 µM (MKNK2; 5 μM): 100%; remaining binding at 10 µM (MKNK2; 10 μM): 96%; remaining binding at 5 µM (MLK2; 5 μM): 70%; remaining binding at 10 µM (MLK2; 10 μM): 100%; remaining binding at 5 µM (MRCKB; 5 μM): 89%; remaining binding at 10 µM (MRCKB; 10 μM): 92%; remaining binding at 5 µM (MST3; 5 μM): 95%; remaining binding at 10 µM (MST3; 10 μM): 96%; remaining binding at 5 µM (NEK1; 5 μM): 90%; remaining binding at 10 µM (NEK1; 10 μM): 100%; remaining binding at 5 µM (PDGFRA; 5 μM): 100%; remaining binding at 10 µM (PDGFRA; 10 μM): 100%; remaining binding at 5 µM (PIP5K1C; 5 μM): 100%; remaining binding at 10 µM (PIP5K1C; 10 μM): 94%; remaining binding at 5 µM (PKAC-alpha; 5 μM): 93%; remaining binding at 10 µM (PKAC-alpha; 10 μM): 100%; remaining binding at 5 µM (PRKCH; 5 μM): 82%; remaining binding at 10 µM (PRKCH; 10 μM): 100%; remaining binding at 5 µM (RIOK3; 5 μM): 100%; remaining binding at 10 µM (RIOK3; 10 μM): 100%; remaining binding at 5 µM ([1]; 5 μM): 100%; remaining binding at 10 µM ([1]; 10 μM): 100%; remaining binding at 5 µM (SNRK; 5 μM): 100%; remaining binding at 10 µM (SNRK; 10 μM): 100%; remaining binding at 5 µM (STK33; 5 μM): 99%; remaining binding at 10 µM (STK33; 10 μM): 100%; remaining binding at 5 µM (p38-delta; 5 μM): 75%; remaining binding at 10 µM (p38-delta; 10 μM): 65%
